Columns and labels:
A. baumannii isolates [1] = test: Checkerboard testing (compound (I)/antibacterial agent interaction, FIC index); format: cell-based, Acinetobacter baumannii; settings: Acinetobacter baumannii
In short: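 Two-fold dilutions of compound (I) alone or combined with amikacin, gentamicin, colistin, meropenem or tobramycin (0.25–2×MIC) were tested against 20 isolates (susceptible, amikacin-, colistin-, meropenem-resistant). Inoculum was ~4-5×10^4 CFU/ml, incubated at 35° C for 16-20 h. Interaction was scored by FIC index: ≤0.5 synergy, >4 antagonism.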

A. baumannii RCH-69 = test: Mouse model of A. baumannii pneumonia, Study 3: survival; format: in vivo, Acinetobacter baumannii; settings: neutropenic C3H/HeN mice, q 8 h I.P. 3 days, compound (I) 200 mg/kg, meropenem 50 mg/kg, colistin 125000 Ul/kg
Description: The bacterial inoculum was prepared in order to obtain a suspension containing 10^8 CFU/mL of Acinetobacter baumannii in saline.
Experimentations were performed with six-week old female C3H/HeN mice (18-20 g, Breeding Centre JANVIER (Ile saint Genest Mayenne 53)) because of their particular susceptibility to Acinetobacter baumannii and the reproducibility of the results (inbreeding in the breed). Each mouse was individually marked and housed in cages containing five animals/cage under ventilated and controlled (temperature and humidity) atmosphere.
The mice were rendered transiently neutropenic by 2 intra-peritoneal (IP) injections of 150 μL of cyclophosphamide (Endoxan® 150 mg/kg) 4 (D-4) and 3 (D-3) days before the Acinetobacter baumannii inoculation (Day 0). This transient immunosuppression was sufficient to facilitate the development of the A. baumannii pneumonia while allowing the recovery of the neutrophil influx 2 (Day 2) days after inoculation in order to avoid or limit a systemic bacterial dissemination.
Mice were anesthetized by a mixture of oxygen and isoflurane. The bacterial inoculation was performed on Day 0 by intra-tracheal installation using an endotracheal catheter (50 μl of the suspension, thus 5.106 CFU). The positioning of the catheter in the trachea (instead of in the oesophagus) was checked by a “ring test”. The bacterial count in lungs was checked for all study groups by sacrificing one mouse immediately after inoculation.
Survival observations were assessed twice daily, up to 4 days post infection. The survival rates were compared with the Chi-square test or the Fisher exact test as appropriate. The survival curves were compared by the Kaplan-Meier method.
The aim of this experiment was to assess the survival rate of transiently neutropenic female C3H/HeN mice administered, 3 hours post-inoculation of A. baumannii RCH-69 via intra-tracheal route, with a compound (I) via intra-peritoneal route at 200 mg/kg 3 times daily (every 8 hours) for 3 days alone and in combination with meropenem at 50 mg/kg 3 times daily (every 8 hours) for 3 days or with colistin at 125000 UI/kg 3 times daily (every 8 hours) for 3 days. 85 mice were allocated into 6 groups as follows.
Six vials of 8 mL each containing 94.2 mg/mL of compound (I) and 47.1 mg/mL of PVP 12 PF (Kollidon 12 PF) were prepared and stored between +2° C. and +8° C. Following storage, each vial was homogenized by manual shaking and diluted by 2-fold in 13.72 mg/mL NaCl aqueous solution in order to obtain a 47.1 mg of compound (I)/mL isotonic suspension. In Groups 2, 4 and 5, mice were administered with 100 μL of the 47.1 mg/mL compound (I) suspension.

A. baumannii SAN strain = test: Bactericidal activity (time kill kinetics, Example 5); format: cell-based, Acinetobacter baumannii; settings: alone at 2×MIC
Description: In addition, a second set of experiments involved the testing of compound(I)/additional antibacterial agent combinations of 2×/2×MIC. Samples were taken at 0, 3, 6 and 24 hours in order to determine colony forming units (CFU/mL).

A. baumannii isolates [2] = test: Time kill study (Example 4); format: cell-based, Acinetobacter baumannii; settings: for Time to kill 99.9%: alone; for MIC: Acinetobacter baumannii, read-out: MIC
In short: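 Twelve isolates (three each susceptible, meropenem-, amikacin- or colistin-resistant) exposed to compound (I) combined with amikacin, colistin or meropenem, each agent also alone at 1× and 4× its MIC. CFU/mL counted at 0, 2, 4, 8 and 24 h.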

[3] = 24 h after RCH strain infection

Compound: C[C@@H](O)[C@H]1C(=O)N2C(C(=O)O)=C(S[C@@H]3CN[C@H](C(=O)N(C)C)C3)[C@H](C)[C@H]12 [meropenem]
- MIC (A. baumannii isolates [1]; A. baumannii 441142, colistin-resistant, read-out: MIC): 64 µg/mL
- MIC (A. baumannii isolates [1]; A. baumannii 441160, colistin-resistant, read-out: MIC): 64 µg/mL
- MIC (A. baumannii isolates [1]; A. baumannii 463996, colistin-resistant): 0.125 µg/mL
- MIC (A. baumannii isolates [1]; A. baumannii 466936, colistin-resistant): 128 µg/mL
- MIC (A. baumannii isolates [1]; A. baumannii 517303, colistin-resistant, read-out: MIC): 1 µg/mL
- MIC (A. baumannii isolates [1]; A. baumannii 618649, meropenem-resistant, read-out: MIC): 64 µg/mL
- MIC (A. baumannii isolates [1]; A. baumannii 625917, meropenem-resistant, read-out: MIC): 64 µg/mL
- MIC (A. baumannii isolates [1]; A. baumannii 628760, susceptible, read-out: MIC): 0.25 µg/mL
- MIC (A. baumannii isolates [1]; A. baumannii 637723, amikacin-resistant, read-out: MIC): 1 µg/mL
- MIC (A. baumannii isolates [1]; A. baumannii 638115, amikacin-resistant, read-out: MIC): 2 µg/mL
- MIC (A. baumannii isolates [1]; A. baumannii 650216, meropenem-resistant, read-out: MIC): 64 µg/mL
- MIC (A. baumannii isolates [1]; A. baumannii 655932, amikacin-resistant, read-out: MIC): 16 µg/mL
- MIC (A. baumannii isolates [1]; A. baumannii 661954, amikacin-resistant, read-out: MIC): 1 µg/mL
- MIC (A. baumannii isolates [1]; A. baumannii 667848, meropenem-resistant, read-out: MIC): 32 µg/mL
- MIC (A. baumannii isolates [1]; A. baumannii 668116, susceptible, read-out: MIC): 0.5 µg/mL
- MIC (A. baumannii isolates [1]; A. baumannii 668239, amikacin-resistant, read-out: MIC): 16 µg/mL
- MIC (A. baumannii isolates [1]; A. baumannii 670348, susceptible, read-out: MIC): 0.5 µg/mL
- MIC (A. baumannii isolates [1]; A. baumannii 671050, meropenem-resistant, read-out: MIC): 32 µg/mL
- MIC (A. baumannii isolates [1]; A. baumannii 672190, susceptible, read-out: MIC): 0.5 µg/mL
- MIC (A. baumannii isolates [1]; A. baumannii 674340, susceptible, read-out: MIC): 0.5 µg/mL
- No. of survivors (A. baumannii RCH-69; 0 h after RCH strain infection): 14
- survivors (%) (A. baumannii RCH-69; 0 h after RCH strain infection): 100%
- No. of survivors (A. baumannii RCH-69; [3]): 14
- survivors (%) (A. baumannii RCH-69; [3]): 100%
- No. of survivors (A. baumannii RCH-69; 48 h after RCH strain infection): 0
- No. of survivors (A. baumannii RCH-69; 72 h after RCH strain infection): 0
- No. of survivors (A. baumannii RCH-69; 96 h after RCH strain infection): 0
- effect in time-kill study when tested alone (A. baumannii SAN strain): bactericidal
- Time to kill 99.9% (A. baumannii isolates [2]; AMK-R-1, 1xMIC): 5.2 h
- Time to kill 99.9% (A. baumannii isolates [2]; AMK-R-1, 4xMIC): 3.2 h
- Time to kill 99.9% (A. baumannii isolates [2]; AMK-R-2, 1xMIC): >24 h
- Time to kill 99.9% (A. baumannii isolates [2]; AMK-R-2, 4xMIC): 6.1 h
- Time to kill 99.9% (A. baumannii isolates [2]; AMK-R-3, 1xMIC): 3.6 h
- Time to kill 99.9% (A. baumannii isolates [2]; AMK-R-3, 4xMIC): 1.8 h
- MIC (A. baumannii isolates [2]; isolate AMK-R-1): 4 µg/mL
- MIC (A. baumannii isolates [2]; isolate AMK-R-2): 16 µg/mL
- MIC (A. baumannii isolates [2]; isolate AMK-R-3): 16 µg/mL
- MIC (A. baumannii isolates [2]; isolate COL-R-1): 64 µg/mL
- MIC (A. baumannii isolates [2]; isolate COL-R-2): 0.25 µg/mL
- MIC (A. baumannii isolates [2]; isolate COL-R-3): 16 µg/mL
- Time to kill 99.9% (A. baumannii isolates [2]; COL-R-1, 1xMIC): 3.6 h
- Time to kill 99.9% (A. baumannii isolates [2]; COL-R-1, 4xMIC): 3.6 h
- Time to kill 99.9% (A. baumannii isolates [2]; COL-R-2, 1xMIC): >24 h
- Time to kill 99.9% (A. baumannii isolates [2]; COL-R-2, 4xMIC): 5.8 h
- Time to kill 99.9% (A. baumannii isolates [2]; COL-R-3, 1xMIC): >24 h
- Time to kill 99.9% (A. baumannii isolates [2]; COL-R-3, 4xMIC): 3.2 h
- effect in time-kill studies when tested alone (A. baumannii isolates [2]; alone at 1× or 4×MIC): generally bactericidal

Reference: patent US20150065416A1, “NOVEL DRUG COMBINATION” (FAB PHARMA SAS, priority 2013, published 2015)
